From patent US8415469B2, “Compounds and methods for kinase modulation, and indications therefor” (Plexxikon Inc., priority 2005, dated 2013)

Key:
Type in all cases: biochemical
Jnk3 = molecular target: T1, Jnk3 (Homo sapiens, UniProt P53779); test: AlphaScreen kinase assay, Jnk3; conditions: read-out: IC50, activity toward kinase Jnk3
T1 construct: purchased Upstate Biotechnology

B-Raf V600E = molecular target: T2, B-Raf V600E (Homo sapiens, UniProt P15056, V600E); test: AlphaScreen kinase assay, B-Raf V600E; conditions: read-out: IC50, activity toward kinase B-Raf V600E
T2 construct: P4254. pFastBacBD-CDC37 BRAF D437-K722-X, V600E; His6 with pFastBac HT leader (TEV site) (N); made in house; host or cells: Sf9 (baculovirus; chaperone CDC37 co-expressed)

Jnk2 = molecular target: T3, Jnk2 (Homo sapiens, UniProt P45984); test: AlphaScreen kinase assay, Jnk2; conditions: read-out: IC50, activity toward kinase Jnk2
T3 construct: purchased Roche Protein Expression Group (Indianapolis, IN)
Text: AlphaScreen assay was used to screen additional kinases. The assay is similarly dependent on the phosphorylation of a peptide substrate. In this assay, an antibody that recognizes phosphorylated substrate is bound to an acceptor bead. The peptide substrate is attached to biotin, which binds to a donor head that contains streptavidin. Thus phosphorylated substrate is bound by antibody and streptavidin, bringing the donor and acceptor heads into close proximity when kinase is not inhibited. The donor produces singlet oxygen which results in emission from the acceptor when they are in close proximity. Conversely, when kinase is inhibited, the donor and acceptor beads are not associated and the emission from the acceptor is reduced.
AlphaScreen assays were done using compounds dissolved in DMSO to a concentration of 20 mM. The compounds were diluted accordingly to the desired final concentrations in each sample well, using 1:3 serial dilution for a total of 8 concentration points.

Fms = molecular target: T4, Fms (Homo sapiens, UniProt P07333); test: AlphaScreen kinase assay, Fms; conditions: read-out: IC50, activity toward kinase Fms
T4 construct: purchased Upstate Biotechnology

B-Raf = molecular target: T5, B-Raf (Homo sapiens, UniProt P15056); test: AlphaScreen kinase assay, B-Raf; conditions: read-out: IC50, activity toward kinase B-Raf
T5 construct: purchased Upstate Biotechnology

Jnk1 = molecular target: T6, Jnk1 (Homo sapiens, UniProt P45983); test: AlphaScreen kinase assay, Jnk1; conditions: read-out: IC50, activity toward kinase Jnk1
T6 construct: purchased Upstate Biotechnology

FGFR1 = molecular target: T7, FGFR1 (Homo sapiens, UniProt P11362, C488A/C584S); test: AlphaScreen kinase assay, FGFR1; conditions: read-out: IC50, activity toward kinase FGFR
T7 construct: P1351.pET N6 BI-PTP FGFR A458-E765-X C488A, C584S; made in house; host or cells: E. coli (PTP1B co-expressed)

c-Raf-1 = molecular target: T8, c-Raf-1 (Homo sapiens, UniProt P04049); test: AlphaScreen kinase assay, c-Raf-1; conditions: read-out: IC50, activity toward kinase c-Raf-1
T8 construct: purchased Upstate Biotechnology

Kit = molecular target: T9, Kit (Homo sapiens, UniProt P10721); test: AlphaScreen kinase assay, Kit; conditions: read-out: IC50, activity toward kinase Kit
T9 construct: P1332.N6 BI PTP KIT M552-K948-X COD; His6 (N); made in house; host or cells: E. coli (PTP1B co-expressed)

Ret = molecular target: T10, Ret (Homo sapiens, UniProt P07949); test: AlphaScreen kinase assay, Ret; conditions: read-out: IC50, activity toward kinase Ret
T10 construct: P1378.pET-SF BI-PTP RET H661-R1012 HIS; made in house
T10 sequence (P07949 with tags, fused parts or gaps): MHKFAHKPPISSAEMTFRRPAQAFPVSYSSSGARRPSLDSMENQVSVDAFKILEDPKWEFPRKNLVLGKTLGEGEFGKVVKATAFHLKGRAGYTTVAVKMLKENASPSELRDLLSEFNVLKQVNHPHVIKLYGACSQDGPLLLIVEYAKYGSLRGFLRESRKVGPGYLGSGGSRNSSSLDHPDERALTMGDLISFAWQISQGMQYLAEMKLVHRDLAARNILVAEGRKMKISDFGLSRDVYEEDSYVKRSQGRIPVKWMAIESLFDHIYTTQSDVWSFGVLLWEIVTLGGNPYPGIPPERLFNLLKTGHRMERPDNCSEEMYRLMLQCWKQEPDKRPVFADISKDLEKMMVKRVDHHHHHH

Flt1 = molecular target: T11, Flt1 (Homo sapiens, UniProt P17948); test: AlphaScreen kinase assay, Flt1; conditions: read-out: IC50, activity toward kinase Flt1
T11 construct: P1826.pETN6 BI-PTP FLT1 M799-D1165-X WT; His6 (N); made in house; host or cells: E. coli (PTP1B co-expressed)
T11 sequence (P17948 with tags, fused parts or gaps): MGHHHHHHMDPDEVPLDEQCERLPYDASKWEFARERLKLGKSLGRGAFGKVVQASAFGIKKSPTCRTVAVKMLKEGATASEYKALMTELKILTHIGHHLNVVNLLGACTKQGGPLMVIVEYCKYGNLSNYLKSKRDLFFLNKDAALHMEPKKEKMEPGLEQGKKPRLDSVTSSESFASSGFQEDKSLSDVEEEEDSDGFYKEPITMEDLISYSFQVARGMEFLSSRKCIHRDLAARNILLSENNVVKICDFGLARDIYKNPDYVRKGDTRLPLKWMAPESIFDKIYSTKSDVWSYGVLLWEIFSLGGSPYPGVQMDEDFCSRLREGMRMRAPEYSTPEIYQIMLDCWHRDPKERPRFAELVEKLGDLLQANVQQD

T4 sequence (P07333 20-972): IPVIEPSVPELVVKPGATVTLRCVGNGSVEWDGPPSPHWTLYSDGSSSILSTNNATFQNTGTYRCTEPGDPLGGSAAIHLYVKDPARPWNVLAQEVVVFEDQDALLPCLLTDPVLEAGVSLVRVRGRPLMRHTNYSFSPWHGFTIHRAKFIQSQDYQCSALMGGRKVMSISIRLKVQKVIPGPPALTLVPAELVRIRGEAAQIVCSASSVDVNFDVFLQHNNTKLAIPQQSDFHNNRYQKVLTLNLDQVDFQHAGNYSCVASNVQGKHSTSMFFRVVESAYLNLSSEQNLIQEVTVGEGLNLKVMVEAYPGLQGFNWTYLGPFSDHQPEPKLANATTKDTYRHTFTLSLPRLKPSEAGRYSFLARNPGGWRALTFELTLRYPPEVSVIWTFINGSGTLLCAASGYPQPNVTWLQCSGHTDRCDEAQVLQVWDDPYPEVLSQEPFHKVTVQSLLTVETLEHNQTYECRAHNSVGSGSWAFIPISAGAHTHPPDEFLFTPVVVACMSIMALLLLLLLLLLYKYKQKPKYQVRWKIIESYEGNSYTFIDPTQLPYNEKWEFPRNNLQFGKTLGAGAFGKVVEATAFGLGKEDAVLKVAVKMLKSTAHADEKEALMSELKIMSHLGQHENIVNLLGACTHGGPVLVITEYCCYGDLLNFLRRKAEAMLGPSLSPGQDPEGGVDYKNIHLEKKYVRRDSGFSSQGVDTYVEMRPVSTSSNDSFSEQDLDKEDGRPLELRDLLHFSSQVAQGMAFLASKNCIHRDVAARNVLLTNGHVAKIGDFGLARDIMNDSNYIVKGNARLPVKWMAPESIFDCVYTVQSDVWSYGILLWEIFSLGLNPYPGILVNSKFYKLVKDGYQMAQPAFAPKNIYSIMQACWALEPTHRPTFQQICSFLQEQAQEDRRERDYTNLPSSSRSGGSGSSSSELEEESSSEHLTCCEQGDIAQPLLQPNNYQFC
T2 sequence (P15056 with tags, fused parts or gaps V600E): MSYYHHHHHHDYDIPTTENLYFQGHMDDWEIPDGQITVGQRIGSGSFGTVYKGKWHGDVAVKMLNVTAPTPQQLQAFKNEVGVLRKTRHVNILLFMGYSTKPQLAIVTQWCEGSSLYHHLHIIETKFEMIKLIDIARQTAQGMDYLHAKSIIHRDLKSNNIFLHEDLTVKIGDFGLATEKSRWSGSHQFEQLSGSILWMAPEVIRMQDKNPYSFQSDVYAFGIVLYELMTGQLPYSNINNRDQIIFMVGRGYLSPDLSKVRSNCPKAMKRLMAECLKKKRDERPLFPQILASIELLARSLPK
T5 sequence (P15056 whole entry): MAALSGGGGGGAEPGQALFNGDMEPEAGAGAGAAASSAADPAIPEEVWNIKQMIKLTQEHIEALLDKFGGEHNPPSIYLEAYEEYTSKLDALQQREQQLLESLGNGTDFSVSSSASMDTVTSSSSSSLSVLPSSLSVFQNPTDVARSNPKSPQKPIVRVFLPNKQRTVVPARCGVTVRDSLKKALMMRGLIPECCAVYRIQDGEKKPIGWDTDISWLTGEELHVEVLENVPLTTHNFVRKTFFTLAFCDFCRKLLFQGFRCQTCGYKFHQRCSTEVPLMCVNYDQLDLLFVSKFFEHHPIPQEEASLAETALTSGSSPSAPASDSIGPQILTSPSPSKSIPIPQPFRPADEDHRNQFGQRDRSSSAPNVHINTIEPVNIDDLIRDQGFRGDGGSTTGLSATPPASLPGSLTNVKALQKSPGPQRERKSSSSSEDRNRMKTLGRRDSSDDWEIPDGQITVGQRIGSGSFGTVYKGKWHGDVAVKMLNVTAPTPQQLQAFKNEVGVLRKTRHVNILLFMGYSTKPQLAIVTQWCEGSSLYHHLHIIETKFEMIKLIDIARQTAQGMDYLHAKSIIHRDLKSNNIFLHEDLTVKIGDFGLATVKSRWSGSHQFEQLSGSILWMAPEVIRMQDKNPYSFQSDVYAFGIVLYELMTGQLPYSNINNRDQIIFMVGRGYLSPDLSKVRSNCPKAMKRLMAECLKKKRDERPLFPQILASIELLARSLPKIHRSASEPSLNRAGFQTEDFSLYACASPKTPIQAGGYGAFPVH
T3 sequence (P45984 whole entry): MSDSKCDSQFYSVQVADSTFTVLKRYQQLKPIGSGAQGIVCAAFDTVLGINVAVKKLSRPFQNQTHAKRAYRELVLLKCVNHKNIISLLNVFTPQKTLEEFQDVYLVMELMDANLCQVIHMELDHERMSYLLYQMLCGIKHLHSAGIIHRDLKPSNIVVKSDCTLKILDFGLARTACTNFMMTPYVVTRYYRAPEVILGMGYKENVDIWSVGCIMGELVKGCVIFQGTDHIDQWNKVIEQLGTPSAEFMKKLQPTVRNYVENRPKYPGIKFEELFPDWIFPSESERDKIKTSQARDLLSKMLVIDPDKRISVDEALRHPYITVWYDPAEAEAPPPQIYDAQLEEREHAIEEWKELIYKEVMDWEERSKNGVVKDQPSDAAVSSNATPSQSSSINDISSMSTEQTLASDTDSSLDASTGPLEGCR
T6 sequence (P45983 whole entry): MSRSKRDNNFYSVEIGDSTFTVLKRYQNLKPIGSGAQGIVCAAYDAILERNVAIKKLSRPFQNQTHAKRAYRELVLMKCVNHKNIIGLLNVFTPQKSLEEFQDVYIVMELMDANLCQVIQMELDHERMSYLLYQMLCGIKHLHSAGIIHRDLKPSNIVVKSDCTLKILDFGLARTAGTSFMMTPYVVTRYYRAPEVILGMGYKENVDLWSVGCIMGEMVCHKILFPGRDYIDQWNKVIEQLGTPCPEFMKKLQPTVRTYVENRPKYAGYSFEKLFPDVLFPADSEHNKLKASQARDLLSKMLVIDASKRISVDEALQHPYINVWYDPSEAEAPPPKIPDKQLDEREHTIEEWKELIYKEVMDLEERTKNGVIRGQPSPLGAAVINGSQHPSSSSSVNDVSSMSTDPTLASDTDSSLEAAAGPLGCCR
T1 sequence (P53779 whole entry): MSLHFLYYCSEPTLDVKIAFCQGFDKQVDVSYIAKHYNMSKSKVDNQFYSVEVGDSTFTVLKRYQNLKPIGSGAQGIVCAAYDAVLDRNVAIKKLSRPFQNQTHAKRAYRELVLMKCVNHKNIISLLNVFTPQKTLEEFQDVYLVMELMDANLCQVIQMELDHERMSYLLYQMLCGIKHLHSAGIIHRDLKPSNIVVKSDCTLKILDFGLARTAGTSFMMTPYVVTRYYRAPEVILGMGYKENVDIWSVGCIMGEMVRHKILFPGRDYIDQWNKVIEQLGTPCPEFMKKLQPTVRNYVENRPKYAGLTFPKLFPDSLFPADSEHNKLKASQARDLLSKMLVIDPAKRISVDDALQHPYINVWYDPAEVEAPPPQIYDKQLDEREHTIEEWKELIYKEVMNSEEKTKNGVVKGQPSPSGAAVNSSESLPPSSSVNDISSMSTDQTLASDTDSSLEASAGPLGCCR
T9 sequence (P10721 with tags, fused parts or gaps): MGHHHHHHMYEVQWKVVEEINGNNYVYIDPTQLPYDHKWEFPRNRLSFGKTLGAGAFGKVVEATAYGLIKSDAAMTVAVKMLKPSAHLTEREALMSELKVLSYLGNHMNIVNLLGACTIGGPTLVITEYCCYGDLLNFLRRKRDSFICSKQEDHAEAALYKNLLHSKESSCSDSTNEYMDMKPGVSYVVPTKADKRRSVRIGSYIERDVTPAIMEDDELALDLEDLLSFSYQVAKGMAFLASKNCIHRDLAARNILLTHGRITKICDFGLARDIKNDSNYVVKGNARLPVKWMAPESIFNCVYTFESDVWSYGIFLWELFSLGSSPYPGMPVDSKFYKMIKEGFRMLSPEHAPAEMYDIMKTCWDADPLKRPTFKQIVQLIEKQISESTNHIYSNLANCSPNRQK
T8 sequence (P04049 whole entry): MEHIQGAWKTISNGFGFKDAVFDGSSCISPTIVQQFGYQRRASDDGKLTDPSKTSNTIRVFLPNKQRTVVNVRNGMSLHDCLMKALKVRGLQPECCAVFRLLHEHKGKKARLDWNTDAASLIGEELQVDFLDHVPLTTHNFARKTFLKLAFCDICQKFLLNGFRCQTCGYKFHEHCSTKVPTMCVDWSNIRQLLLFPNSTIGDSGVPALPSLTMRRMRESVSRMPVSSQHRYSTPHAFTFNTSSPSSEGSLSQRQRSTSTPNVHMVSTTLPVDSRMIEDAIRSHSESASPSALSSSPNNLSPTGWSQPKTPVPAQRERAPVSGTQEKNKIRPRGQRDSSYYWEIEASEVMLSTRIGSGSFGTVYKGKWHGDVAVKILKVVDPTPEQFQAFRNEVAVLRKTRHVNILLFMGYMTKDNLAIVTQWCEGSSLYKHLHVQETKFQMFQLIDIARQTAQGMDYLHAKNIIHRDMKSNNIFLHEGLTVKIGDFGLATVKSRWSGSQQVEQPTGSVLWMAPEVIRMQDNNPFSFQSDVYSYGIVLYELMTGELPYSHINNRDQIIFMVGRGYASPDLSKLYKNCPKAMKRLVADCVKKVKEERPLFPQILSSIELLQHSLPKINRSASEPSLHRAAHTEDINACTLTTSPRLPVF
T7 sequence (P11362 458-765 C488A/C584S): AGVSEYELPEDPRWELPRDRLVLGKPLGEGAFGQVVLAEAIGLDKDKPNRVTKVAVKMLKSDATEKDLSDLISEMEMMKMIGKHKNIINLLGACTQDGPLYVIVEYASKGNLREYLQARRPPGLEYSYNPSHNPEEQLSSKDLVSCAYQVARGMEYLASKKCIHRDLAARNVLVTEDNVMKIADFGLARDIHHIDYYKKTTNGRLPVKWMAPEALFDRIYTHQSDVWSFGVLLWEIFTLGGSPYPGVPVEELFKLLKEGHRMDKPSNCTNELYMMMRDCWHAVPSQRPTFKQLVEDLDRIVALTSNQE

| IC50 (Jnk3) [µM] | IC50 (B-Raf V600E) [µM] | IC50 (Jnk2) [µM] | IC50 (Fms) [µM] | IC50 (B-Raf) [µM] | IC50 (Jnk1) [µM] | IC50 (FGFR1) [µM] | IC50 (c-Raf-1) [µM] | IC50 (Kit) [µM] | IC50 (Ret) [µM] | IC50 (Flt1) [µM] | Compound |
| --- | --- | --- | --- | --- | --- | --- | --- | --- | --- | --- | --- |
| ≤ 10 | ≤ 10 | ≤ 10 | ≤ 10 | ≤ 10 | ≤ 10 | – | – | – | – | – | CCCCNC(=O)Nc1cccc(C(=O)c2c[nH]c3ncc(-c4cccnc4)cc23)c1Cl [Compound P-1828, 1-Butyl-3-[2-chloro-3-(5-pyridin-3-yl-1H-pyrrolo[2,3-b]pyridine-3-carbonyl)-phenyl]-urea] |
| – | ≤ 10 | ≤ 10 | ≤ 10 | ≤ 10 | ≤ 10 | – | – | – | – | – | O=C(Nc1ccncc1)Nc1cccc(C(=O)c2c[nH]c3ncccc23)c1 [Compound P-1760, 1-Pyridin-4-yl-3-[3-(1H-pyrrolo[2,3-b]pyridine-3-carbonyl)-phenyl]-urea] |
| – | ≤ 10 | ≤ 10 | ≤ 10 | ≤ 10 | ≤ 10 | – | – | – | – | – | O=C(Nc1cccc(C(=O)c2c[nH]c3ncc(-c4cccnc4)cc23)c1)Nc1cccc(C(F)(F)F)c1 [Compound P-1755, 1-[3-(5-Pyridin-3-yl-1H-pyrrolo[2,3-b]pyridine-3-carbonyl)-phenyl]-3-(3-trifluoromethyl-phenyl)-urea] |
| ≤ 10 | – | ≤ 10 | ≤ 10 | ≤ 10 | ≤ 10 | – | – | – | – | – | CCCCNC(=O)n1ccc2c(C(=O)c3c[nH]c4ncc(-c5ccc(OC)nc5)cc34)cccc21 [Compound P-1827, 4-[5-(6-Methoxy-pyridin-3-yl)-1H-pyrrolo[2,3-b]pyridine-3-carbonyl]-indole-1-carboxylic acid butylamide] |
| – | ≤ 10 | ≤ 10 | ≤ 10 | ≤ 10 | ≤ 10 | – | – | – | – | – | COc1ccc(NC(=O)Nc2cccc(C(=O)c3c[nH]c4ncc(-c5cccnc5)cc34)c2)cn1 [Compound P-1779, 1-(6-Methoxy-pyridin-3-yl)-3-[3-(5-pyridin-3-yl-1H-pyrrolo[2,3-b]pyridine-3-carbonyl)-phenyl]-urea] |
| ≤ 10 | ≤ 10 | ≤ 10 | – | ≤ 10 | ≤ 10 | – | – | – | – | – | O=C(Nc1ccncc1)Nc1cccc(C(=O)c2c[nH]c3ncc(-c4cccnc4)cc23)c1 [Compound P-1777, 1-Pyridin-4-yl-3-[3-(5-pyridin-3-yl-1H-pyrrolo[2,3-b]pyridine-3-carbonyl)-phenyl]-urea] |

Further lines, the molecule ahead of its results:

| Compound | IC50 (Jnk3) [µM] | IC50 (B-Raf V600E) [µM] | IC50 (Jnk2) [µM] | IC50 (Fms) [µM] | IC50 (B-Raf) [µM] | IC50 (Jnk1) [µM] | IC50 (FGFR1) [µM] | IC50 (c-Raf-1) [µM] | IC50 (Kit) [µM] | IC50 (Ret) [µM] | IC50 (Flt1) [µM] |
| --- | --- | --- | --- | --- | --- | --- | --- | --- | --- | --- | --- |
| CCCN(CCC)C(=O)n1ccc2c(C(=O)c3c[nH]c4ncc(-c5cccnc5)cc34)cccc21 [Compound P-1722, 4-(5-Pyridin-3-yl-1H-pyrrolo[2,3-b]pyridine-3-carbonyl)-indole-1-carboxylic acid dipropylamide] | ≤ 10 | ≤ 10 | ≤ 10 | ≤ 10 | ≤ 10 | ≤ 10 | – | – | – | – | – |
| O=C(Nc1ccc(F)cc1)Nc1cccc(C(=O)c2c[nH]c3ncc(-c4cccnc4)cc23)c1 [Compound P-1748, 1-(4-Fluoro-phenyl)-3-[3-(5-pyridin-3-yl-1H-pyrrolo[2,3-b]pyridine-3-carbonyl)-phenyl]-urea] | ≤ 10 | ≤ 10 | ≤ 10 | ≤ 10 | ≤ 10 | ≤ 10 | – | – | – | – | – |
| O=C(Nc1cccc(F)c1)Nc1cccc(C(=O)c2c[nH]c3ncc(-c4cccnc4)cc23)c1 [Compound P-1730, 1-(3-Fluoro-phenyl)-3-[3-(5-pyridin-3-yl-1H-pyrrolo[2,3-b]pyridine-3-carbonyl)-phenyl]-urea] | – | ≤ 10 | ≤ 10 | ≤ 10 | ≤ 10 | ≤ 10 | – | – | – | – | – |
| O=C(c1c[nH]c2ncc(-c3ccccc3)cc12)c1cccc2c1ccn2C(=O)NCc1ccccc1 [Compound P-1611, 4-(5-Phenyl-1H-pyrrolo[2,3-b]pyridine-3-carbonyl)-indole-1-carboxylic acid benzylamide] | ≤ 10 | ≤ 10 | ≤ 10 | ≤ 10 | – | ≤ 10 | – | – | – | – | – |
| CCCCNC(=O)Nc1ccc(F)c(C(=O)c2c[nH]c3ncc(-c4cccc(S(C)(=O)=O)c4)cc23)c1 [Compound P-1627, 1-Butyl-3-{4-fluoro-3-[5-(3-methanesulfonyl-phenyl)-1H-pyrrolo[2,3-b]pyridine-3-carbonyl]-phenyl}-urea] | – | ≤ 10 | ≤ 10 | ≤ 10 | ≤ 10 | ≤ 10 | – | – | – | – | – |
| COc1ccc(NC(=O)Nc2cccc(C(=O)c3c[nH]c4ncc(-c5cccnc5)cc34)c2)cc1 [Compound P-1723, 1-(4-Methoxy-phenyl)-3-[3-(5-pyridin-3-yl-1H-pyrrolo[2,3-b]pyridine-3-carbonyl)-phenyl]-urea] | – | ≤ 10 | ≤ 10 | ≤ 10 | ≤ 10 | ≤ 10 | – | – | – | – | – |
| CCCCNC(=O)n1ccc2c(Cc3c[nH]c4ncc(-c5cccnc5)cc34)cccc21 [Compound P-1656, 4-(5-pyridin-3-yl-1H-pyrrolo[2,3-b]pyridin-3-ylmethyl)-indole-1-carboxylic acid butylamide] | – | ≤ 10 | ≤ 10 | ≤ 10 | ≤ 10 | ≤ 10 | – | – | – | – | – |
| Cn1cccc1-c1nc(-c2ccnc3[nH]ccc23)no1 [Compound P-0285] | ≤ 10 | – | ≤ 10 | – | – | ≤ 10 | – | – | – | – | – |
| O=C(Nc1cccc(C(=O)c2c[nH]c3ncc(-c4cccnc4)cc23)c1)Nc1ccc(Cl)c(C(F)(F)F)c1 [Compound P-1751, 1-(4-Chloro-3-trifluoromethyl-phenyl)-3-[3-(5-pyridin-3-yl-1H-pyrrolo[2,3-b]pyridine-3-carbonyl)-phenyl]-urea] | – | ≤ 10 | ≤ 10 | ≤ 10 | ≤ 10 | ≤ 10 | – | – | – | – | – |
| Cc1c(NS(C)(=O)=O)cccc1C(=O)c1c[nH]c2ncc(-c3cccnc3)cc12 [Compound P-0121, N-[2-Methyl-3-(5-pyridin-3-yl-1H-pyrrolo[2,3-b]pyridine-3-carbonyl)-phenyl]-methanesulfonamide] | – | ≤ 10 | ≤ 10 | ≤ 10 | – | ≤ 10 | ≤ 10 | ≤ 10 | ≤ 10 | ≤ 10 | – |
| CCCCNC(=O)n1ccc2c(C(=O)c3c[nH]c4ncc(-c5ccc(Cl)cc5)cc34)cccc21 [Compound P-1602, 4-[5-(4-Chloro-phenyl)-1H-pyrrolo[2,3-b]pyridine-3-carbonyl]-indole-1-carboxylic acid butylamide] | – | ≤ 10 | ≤ 10 | ≤ 10 | ≤ 10 | ≤ 10 | – | – | – | – | ≤ 10 |
